Reference: US11453647B2, “Benzimidazole derivatives as adenosine receptor antagonists” (Merck Patent GmbH, priority 2017, dated 2022)
pIC50: −log10 of the molar value.

Assays:
Assay type in all cases: cell-based
human A2A receptor = target: T1, human A2A receptor (Homo sapiens, UniProt P29274); experiment: functional cAMP (HTRF) assay, recombinant HEK293 cells expressing human A2A receptor, agonist NECA
T1 construct: expressed in transfected cells; host or cells: HEK293

A2B receptors = target: T2, A2B receptors (Homo sapiens, UniProt P29275); experiment: functional cAMP (HTRF) assay, recombinant HEK293 cells expressing human A2B receptor, agonist NECA; set-up: expressed in transfected cells; host or cells: HEK293
T2 sequence (P29275 1-332): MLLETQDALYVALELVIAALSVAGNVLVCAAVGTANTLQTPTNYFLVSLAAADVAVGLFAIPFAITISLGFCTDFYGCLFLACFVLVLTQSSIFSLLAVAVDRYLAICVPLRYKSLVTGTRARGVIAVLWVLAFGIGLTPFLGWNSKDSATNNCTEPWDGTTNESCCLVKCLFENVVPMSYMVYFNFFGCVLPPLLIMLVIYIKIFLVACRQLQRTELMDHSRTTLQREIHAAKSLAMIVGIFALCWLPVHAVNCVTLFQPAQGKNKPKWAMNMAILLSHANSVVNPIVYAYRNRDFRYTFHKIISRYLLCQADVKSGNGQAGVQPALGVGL

human A1 receptor = target: T3, human A1 receptor (Homo sapiens, UniProt P30542); experiment: functional cAMP (HTRF) assay, recombinant CHO cells expressing human A1 receptor, forskolin, agonist CPA
T3 construct: expressed in transfected cells; host or cells: CHO
T3 sequence (P30542 1-326): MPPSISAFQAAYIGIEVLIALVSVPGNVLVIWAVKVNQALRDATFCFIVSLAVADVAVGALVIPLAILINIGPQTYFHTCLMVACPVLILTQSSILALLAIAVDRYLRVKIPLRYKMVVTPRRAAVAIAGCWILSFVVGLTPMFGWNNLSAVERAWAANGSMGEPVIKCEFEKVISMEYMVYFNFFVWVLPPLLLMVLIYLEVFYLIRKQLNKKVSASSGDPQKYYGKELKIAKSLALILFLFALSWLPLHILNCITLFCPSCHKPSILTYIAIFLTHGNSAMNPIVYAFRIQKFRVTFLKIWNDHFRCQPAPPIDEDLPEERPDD
Experimental: The functional activities of human A2A, A2B, A1 and A3 receptors were determined by quantification of cAMP, being the second messenger for adenosine receptors.
For human A1 and A3 receptors, recombinant CHO cells, expressing either A1 or A3-receptor, were used. As both receptors couple to Gi proteins, the assay protocol was adapted:
Cells were seeded into 384-well plates, forskolin, test compounds and agonists (CPA for A1- and IB-MECA for A3-receptor) were added. After 30 min incubation, HTRF reagents (cAMP dynamic 2, Cis Bio) were added and the cellular cAMP levels were determined using the ENVISION (Perkin Elmer) plate reader. Obtained raw data were normalized against the inhibitor control and the neural control (DMSO) and the normalized data were fitted using GeneData software.

human A3 receptor = target: T4, human A3 receptor (Homo sapiens, UniProt P0DMS8); experiment: functional cAMP (HTRF) assay, recombinant CHO cells expressing human A3 receptor, forskolin, agonist IB-MECA
T4 construct: expressed in transfected cells; host or cells: CHO
T4 sequence (P0DMS8 1-318): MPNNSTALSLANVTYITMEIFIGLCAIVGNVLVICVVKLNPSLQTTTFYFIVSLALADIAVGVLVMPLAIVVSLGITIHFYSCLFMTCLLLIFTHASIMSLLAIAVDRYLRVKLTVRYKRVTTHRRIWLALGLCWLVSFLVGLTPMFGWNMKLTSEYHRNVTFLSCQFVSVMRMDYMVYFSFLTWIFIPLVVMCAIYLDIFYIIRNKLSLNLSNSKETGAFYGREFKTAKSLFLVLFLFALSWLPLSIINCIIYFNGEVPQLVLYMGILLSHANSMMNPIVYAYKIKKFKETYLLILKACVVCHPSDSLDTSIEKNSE
Outline: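 Recombinant CHO cells expressing A1 or A3 receptor (Gi-coupled) were stimulated with forskolin together with test compound and agonist (CPA for A1, IB-MECA for A3), incubated 30 min, then cellular cAMP was read by HTRF. Data were normalized to inhibitor control and DMSO neutral control, then curve-fitted.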

T1 sequence (P29274 whole entry): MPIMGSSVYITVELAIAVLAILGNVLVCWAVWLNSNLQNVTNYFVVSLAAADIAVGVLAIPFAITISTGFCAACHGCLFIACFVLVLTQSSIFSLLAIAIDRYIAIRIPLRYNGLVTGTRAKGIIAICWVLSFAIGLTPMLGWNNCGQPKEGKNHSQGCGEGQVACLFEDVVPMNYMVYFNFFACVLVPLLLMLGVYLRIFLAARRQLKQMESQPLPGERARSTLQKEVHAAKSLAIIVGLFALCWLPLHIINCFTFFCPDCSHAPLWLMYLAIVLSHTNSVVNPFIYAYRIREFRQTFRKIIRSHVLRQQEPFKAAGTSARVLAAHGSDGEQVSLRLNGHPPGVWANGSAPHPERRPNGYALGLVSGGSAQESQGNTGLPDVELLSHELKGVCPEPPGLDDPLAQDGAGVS

pIC50 (human A2A receptor)	pIC50 (A2B receptors)	pIC50 (human A1 receptor)	pIC50 (human A3 receptor)	Structure (SMILES)
> 8.00	> 6.00	< 6.00	> 7.00	COc1ccc(N2CCOCC2)c2nc(NC(=O)c3ccc(F)cc3)[nH]c12 [compound 63, 4-fluoro-N-[7-methoxy-4-(morpholin-4-yl)-1H-1,3-benzodiazol-2-yl]benzamide]
> 8.00	< 6.00	< 6.00	< 6.00	COc1ccc(C2CCOCC2)c2nc(NC(=O)c3ccc(CN(C)C)cc3)[nH]c12 [compound 88, 4-[(dimethylamino)methyl]-N-[7-methoxy-4-(oxan-4-yl)-1H-1,3-benzodiazol-2-yl]benzamide]
> 8.00	< 6.00	< 6.00	< 6.00	COc1ccc(N2CCOCC2)c2nc(NC(=O)c3ccc(O)c(N)c3)[nH]c12 [compound 99, 3-amino-4-hydroxy-N-[7-methoxy-4-(morpholin-4-yl)-1H-1,3-benzodiazol-2-yl]benzamide]
> 8.00	> 6.00	> 6.00	> 6.00	COc1ccc(-c2cnn(C)c2)c2nc(NC(=O)c3ccc4c(c3)CCO4)[nH]c12 [compound 101, N-[7-methoxy-4-(1-methyl-1H-pyrazol-4-yl)-1H-1,3-benzodiazol-2-yl]-2,3-dihydro-l-benzofuran-5-carboxamide]
> 8.00	< 6.00	< 6.00	< 6.00	C#CCC1(O)CCN(C(=O)Nc2nc3c(C4CCOCC4)ccc(OC)c3[nH]2)CC1 [compound 102, 4-hydroxy-N-[7-methoxy-4-(oxan-4-yl)-1H-1,3-benzodiazol-2-yl]-4-(prop-2-yn-1-yl)piperidine-1-carboxamide]
> 8.00	> 6.00	> 6.00	< 6.00	COc1ccc(C2CCOCC2)c2nc(NC(=O)N3CCC(O)(Cc4ccccc4)CC3)[nH]c12 [compound 103, 4-benzyl-4-hydroxy-N-[7-methoxy-4-(oxan-4-yl)-1H-1,3-benzodiazol-2-yl]piperidine-1-carboxamide]
> 8.00	> 6.00	< 6.00	> 6.00	COc1ccc(C2CCOCC2)c2nc(NC(=O)c3ccc4c(c3)CCO4)[nH]c12 [compound 108, N-[7-methoxy-4-(oxan-4-yl)-1H-1,3-benzodiazol-2-yl]-2,3-dihydro-1-benzofuran-5-carboxamide]
> 8.00	< 6.00	< 6.00	< 6.00	COc1ccc(C2CCOCC2)c2nc(NC(=O)c3ccnc(N4CCC5(CCOC5)C4)c3)[nH]c12 (stereo not shown) [compound 119, N-[7-methoxy-4-(oxan-4-yl)-1H-1,3-benzodiazol-2-yl]-2-{2-oxa-7-azaspiro[4.4]nonan-7-yl}pyridine-4-carboxamide]
> 8.00	< 6.00	< 6.00	< 6.00	COc1ccc(C2CCOCC2)c2nc(NC(=O)c3ccnc(N4CCC(C)(O)C4)c3)[nH]c12 (stereo not shown) [compound 122, 2-(3-hydroxy-3-methylpyrrolidin-1-yl)-N-[7-methoxy-4-(oxan-4-yl)-1H-1,3-benzodiazol-2-yl]pyridine-4-carboxamide]

The next lines start with the compound.

Structure (SMILES)	pIC50 (human A2A receptor)	pIC50 (A2B receptors)	pIC50 (human A1 receptor)	pIC50 (human A3 receptor)
COc1ccc(-c2cnn(C)c2)c2nc(NC(=O)N3CCC(Oc4ccccc4)CC3)[nH]c12 [compound 54, N-[7-methoxy-4-(1-methyl-1H-pyrazol-4-yl)-1H-1,3-benzodiazol-2-yl]-4-phenoxypiperidine-1-carboxamide]	> 7.00	> 6.00	> 6.00	< 6.00
COc1ccc(N2CCOCC2)c2nc(NC(=O)c3ccc(Cn4ccnc4)cc3)[nH]c12 [compound 76, 4-[(1H-imidazol-1-yl)methyl]-N-[7-methoxy-4-(morpholin-4-yl)-1H-1,3-benzodiazol-2-yl]benzamide]	> 8.00	> 6.00	< 6.00	< 6.00
COc1ccc(-c2cn[nH]c2)c2nc(NC(=O)N3CCC(C)(O)CC3)[nH]c12 [compound 79, 4-hydroxy-N-[7-methoxy-4-(1H-pyrazol-4-yl)-1H-1,3-benzodiazol-2-yl]-4-methylpiperidine-1-carboxamide]	> 7.00	> 6.00	< 6.00	< 6.00
COc1ccc(-c2cnn(C)c2)c2nc(NC(=O)c3ccc4occc4c3)[nH]c12 [compound 80, N-[7-methoxy-4-(1-methyl-1H-pyrazol-4-yl)-1H-1,3-benzodiazol-2-yl]-1-benzofuran-5-carboxamide]	> 7.00	> 6.00	< 6.00	> 6.00
COc1ccc(-c2cnn(C)c2)c2nc(NC(=O)c3ccon3)[nH]c12 [compound 84, N-[7-methoxy-4-(1-methyl-1H-pyrazol-4-yl)-1H-1,3-benzodiazol-2-yl]-1,2-oxazole-3-carboxamide]	> 7.00	> 6.00	> 6.00	> 6.00
COc1ccc(-c2ccncc2)c2nc(NC(=O)N3CCC4(COC4)C3)[nH]c12 [compound 85, N-[7-methoxy-4-(pyridin-4-yl)-1H-1,3-benzodiazol-2-yl]-2-oxa-6-azaspiro[3.4]octane-6-carboxamide]	> 7.00	> 6.00	< 6.00	< 6.00
COc1ccc(N2CCOCC2)c2nc(NC(=O)c3cnn(C(CO)CCl)c3)[nH]c12 (stereo not shown) [compound 86, 1-(1-chloro-3-hydroxypropan-2-yl)-N-[7-methoxy-4-(morpholin-4-yl)-1H-1,3-benzodiazol-2-yl]-1H-pyrazole-4-carboxamide]	> 8.00	< 6.00	< 6.00	< 6.00
COc1ccc(-c2cnn(C)c2)c2nc(NC(=O)c3ccnc(Br)c3)[nH]c12 [compound 95, 2-bromo-N-[7-methoxy-4-(1-methyl-1H-pyrazol-4-yl)-1H-1,3-benzodiazol-2-yl]pyridine-4-carboxamide]	> 8.00	> 6.00	> 6.00	> 8.00
COc1ccc(-c2cnn(C)c2)c2nc(NC(=O)c3ccc4ocnc4c3)[nH]c12 [compound 98, N-[7-methoxy-4-(1-methyl-1H-pyrazol-4-yl)-1H-1,3-benzodiazol-2-yl]-1,3-benzoxazole-5-carboxamide]	> 7.00	> 6.00	< 6.00	> 6.00
COc1ccc(-c2cnn(C)c2)c2nc(NC(=O)c3ccnc(N4CC[C@](C)(O)C4)c3)[nH]c12 [compound 104, 2-[(3S)-3-hydroxy-3-methylpyrrolidin-1-yl]-N-[7-methoxy-4-(1-methyl-1H-pyrazol-4-yl)-1H-1,3-benzodiazol-2-yl]pyridine-4-carboxamide]	> 8.00	< 6.00	< 6.00	> 6.00
COc1ccc(-c2cnn(C)c2)c2nc(NC(=O)c3ccnc(N4CCC(C)(O)CC4)c3)[nH]c12 [compound 105]	> 8.00	> 6.00	< 6.00	> 6.00
COc1ccc(-c2cnn(C)c2)c2nc(NC(=O)c3ccnc(N4CCC5(CCOC5)C4)c3)[nH]c12 (stereo not shown) [compound 106, N-[7-methoxy-4-(1-methyl-1H-pyrazol-4-yl)-1H-1,3-benzodiazol-2-yl]-2-{2-oxa-7-azaspiro[4.4]nonan-7-yl}pyridine-4-carboxamide]	> 8.00	< 6.00	< 6.00	> 6.00
COCCC1CCN(C(=O)Nc2nc3c(-c4cnn(C)c4)ccc(OC)c3[nH]2)C1 (stereo not shown) [compound 134, N-[7-methoxy-4-(1-methyl-1H-pyrazol-4-yl)-1H-1,3-benzodiazol-2-yl]-3-(2-methoxyethyl)pyrrolidine-1-carboxamide]	> 7.00	> 6.00	< 6.00	< 6.00
